Measured values from patent US10889581B2, “Cyclopropyl fused thiazine derivatives as beta-secretase inhibitors and methods of use” (AMGEN INC., priority 2016, dated 2021).

Key:
Recombinant CatD = Recombinant CatD (Homo sapiens (Human), UniProt P07339); test: In vitro enzymatic Cathepsin D (CatD) FRET assay; format: biochemical; details: pH 3.5, read-out: Cat D Enzyme IC50
BACE1 [1] = biological target: T1, BACE1 (Homo sapiens (Human), UniProt P56817); test: In vitro BACE1 cell-based assay (Aβ40 in conditioned medium of cells stably expressing APP, HTRF)
Procedure: In Vitro BACE1 Cell-Based Assay
The cell-based assay measures inhibition or reduction of Aβ40 in conditioned medium of test compound treated cells expressing amyloid precursor protein. Cells stably expressing Amyloid Precursor Protein (APP) were plated at a density of 45K cells/well in 384 well plates (Corning/BioCoat 354663). The test compounds were then added to cells in 22-point dose response concentrations with the starting concentration being 62.5 μM. The compounds were diluted from stock solutions in DMSO and the final DMSO concentration of the test compounds on cells was 0.625%. The cells were cultivated overnight at 37° C. and 5% CO2 in DMEM supplemented with 10% FBS. After 24 h of incubation with the test compounds, the conditioned media was collected and the Aβ40 levels were determined using HTRF (Homogeneous Time Resolved Fluorescence). The IC50 of the compound was calculated from the percent of control or percent inhibition of Aβ40 as a function of the concentration of the test compound.
The HTRF to detect Aβ40 was performed in 384 well plates (Costar 3658). The antibody pair that were used to detect Aβ40 from cell supernatants were ConfAb40 antibody (Amgen in-house) and biotinylated 6E10 (BIOLEGEND). As an alternative to ConfAb40, a commercially available antibody, Anti-beta Amyloid 1-40 antibody [BDI350] from Abcam, Cambridge, Mass. 02139-1517 (Product code: ab20068), may be used in this assay. The concentrations were 0.35 μg/mL of ConfAb40 antibody and 1.33 μg/mL of 6E10-biotinylated antibody, as well as 4.5 μg/mL of Streptavidin Allophycocyanin Conjugate (ThermoFisher Scientific) in HTRF Buffer ([…], 1% BSA, 0.5% Tween 20).
The conditioned media was incubated with above antibodies and Streptavidin Allophycocyanin Conjugate for 30-60 minutes at 23° C. The final readout was performed on Envision from PerkinElmer.
Target sequence in this assay (P56817 46-501, species assumed): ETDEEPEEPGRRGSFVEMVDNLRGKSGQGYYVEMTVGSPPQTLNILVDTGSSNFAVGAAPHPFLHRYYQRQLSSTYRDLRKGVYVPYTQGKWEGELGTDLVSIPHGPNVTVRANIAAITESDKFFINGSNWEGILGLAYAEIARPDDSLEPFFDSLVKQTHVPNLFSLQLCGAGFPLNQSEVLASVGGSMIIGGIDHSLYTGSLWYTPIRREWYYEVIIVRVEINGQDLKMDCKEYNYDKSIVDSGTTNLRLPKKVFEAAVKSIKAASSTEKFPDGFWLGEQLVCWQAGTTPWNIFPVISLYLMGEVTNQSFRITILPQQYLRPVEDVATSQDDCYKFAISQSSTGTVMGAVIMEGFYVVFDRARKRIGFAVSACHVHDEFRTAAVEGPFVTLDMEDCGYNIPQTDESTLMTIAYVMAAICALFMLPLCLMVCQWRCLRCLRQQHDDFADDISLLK

BACE1 [2] = biological target: T1, BACE1; test: In vitro enzymatic BACE1 FRET assay; format: biochemical; details: pH 4.5, read-out: BACE1 Enzyme IC50
Target sequence in this assay (P56817 46-501): as the sequence (P56817 46-501, species assumed) above

human recombinant BACE2 = human recombinant BACE2 (Homo sapiens (Human), UniProt Q9Y5Z0); test: In vitro enzymatic BACE2 FRET assay; format: biochemical; details: pH 4.5, read-out: BACE2 Enzyme IC50
Chain of human recombinant BACE2 (Q9Y5Z0 63-518): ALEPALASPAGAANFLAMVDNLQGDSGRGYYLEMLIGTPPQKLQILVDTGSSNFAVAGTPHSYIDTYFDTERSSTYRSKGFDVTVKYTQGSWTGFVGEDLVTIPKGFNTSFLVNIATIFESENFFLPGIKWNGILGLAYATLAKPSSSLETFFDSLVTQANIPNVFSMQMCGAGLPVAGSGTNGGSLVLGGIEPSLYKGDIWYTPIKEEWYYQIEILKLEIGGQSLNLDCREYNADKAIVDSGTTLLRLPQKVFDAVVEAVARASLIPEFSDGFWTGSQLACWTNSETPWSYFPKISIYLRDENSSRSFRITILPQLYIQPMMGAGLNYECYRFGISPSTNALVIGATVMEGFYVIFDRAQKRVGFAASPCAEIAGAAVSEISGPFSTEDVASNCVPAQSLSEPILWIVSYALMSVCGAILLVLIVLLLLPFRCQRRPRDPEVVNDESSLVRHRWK

[3] = Aβ40, 24 h incubation, read-out: BACE1 Cell IC50

Chain of Recombinant CatD (P07339 65-412): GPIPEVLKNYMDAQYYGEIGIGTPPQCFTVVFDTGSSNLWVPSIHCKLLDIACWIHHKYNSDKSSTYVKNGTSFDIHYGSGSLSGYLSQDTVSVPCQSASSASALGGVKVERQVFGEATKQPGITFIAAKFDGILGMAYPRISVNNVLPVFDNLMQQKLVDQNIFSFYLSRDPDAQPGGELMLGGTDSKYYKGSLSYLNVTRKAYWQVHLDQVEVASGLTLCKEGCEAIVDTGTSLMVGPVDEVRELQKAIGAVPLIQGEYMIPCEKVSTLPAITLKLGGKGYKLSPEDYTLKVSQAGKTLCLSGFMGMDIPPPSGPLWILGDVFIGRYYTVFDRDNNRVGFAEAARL

Row | Structure (SMILES) | IC50 (Recombinant CatD) [µM] | IC50 (BACE1 [1]; [3]) [µM] | IC50 (BACE1 [2]) [µM] | IC50 (human recombinant BACE2) [µM] | IC50 (BACE1 [1]) [µM]
1 | Cc1cc(C#N)cnc1C#Cc1ccc(F)c([C@@]2(C)N=C(N)S[C@@]3(C(=O)N(C)C)C[C@H]32)c1 [Example 123, (1S,5S,6S)-3-amino-5-(5-((5-cyano-3-methyl-2-pyridinyl)ethynyl)-2-fluorophenyl)-N,N,5-trimethyl-2-thia-4-azabicyclo[4.1.0]hept-3-ene-1-carboxamide] | 236 | 0.003 | 0.003 | 0.099 | 
2 | Cc1cn(C[C@]23C[C@H]2[C@@](CF)(c2cc(C#Cc4ccc(C#N)cn4)ccc2F)N=C(N)S3)nn1 [Example 115, 6-((3-((1S,5S,6S)-3-amino-5-(fluoromethyl)-1-((4-methyl-1H-1,2,3-triazol-1-yl)methyl)-2-thia-4-azabicyclo[4.1.0]hept-3-en-5-yl)-4-fluorophenyl)ethynyl)nicotinonitrile] | 1030 | 0.142 | 0.109 | 2.18 | 
3 | Cc1cc(C#N)cnc1C#Cc1ccc(F)c([C@@]2(CF)N=C(N)S[C@@]3(CF)C[C@H]32)c1 [Example 104, 6-((3-((1S,5S,6S)-3-amino-1,5-bis(fluoromethyl)-2-thia-4-azabicyclo[4.1.0]hept-3-en-5-yl)-4-fluorophenyl)ethynyl)-5-methylnicotinonitrile] | 1300 | 0.231 | 0.038 | 2.28 | 
4 | CN(C)C(=O)[C@]12C[C@H]1[C@@](C)(c1cc(C#CC3CC3)ccc1F)N=C(N)S2 [Example 132, (1S,5S,6S)-3-amino-5-(5-(cyclopropylethynyl)-2-fluorophenyl)-N,N,5-trimethyl-2-thia-4-azabicyclo[4.1.0]hept-3-ene-1-carboxamide] | 46.8 | 0.059 | 0.02 | 0.007 | 
5 | Cc1cc(OCc2ncco2)cnc1C#Cc1ccc(F)c([C@@]2(C)N=C(N)S[C@@]3(C(=O)N(C)C)C[C@H]32)c1 [Example 131, (1S,5S,6S)-3-amino-5-(2-fluoro-5-((3-methyl-5-(oxazol-2-ylmethoxy)pyridin-2-yl)ethynyl)phenyl)-N,N,5-trimethyl-2-thia-4-azabicyclo[4.1.0]hept-3-ene-1-carboxamide] | 995 | 0.053 | 0.041 | 2.18 | 
6 | NC1=N[C@](CF)(c2cc(C#Cc3ncc(Cl)cn3)ccc2F)[C@@H]2C[C@]2(/C=C/C(=O)N2CCOCC2)S1 [Example 117, (E)-3-((1R,5S,6S)-3-amino-5-(5-((5-chloropyrimidin-2-yl)ethynyl)-2-fluorophenyl)-5-(fluoromethyl)-2-thia-4-azabicyclo[4.1.0]hept-3-en-1-yl)-1-morpholinoprop-2-en-1-one] | 169 | 0.029 | 0.021 | 0.012 | 
7 | NC1=N[C@](CF)(c2cc(C#Cc3ccc(OCc4ncco4)cn3)ccc2F)[C@@H]2C[C@]2(CF)S1 [Example 108, (1S,5S,6S)-5-(2-fluoro-5-((5-(oxazol-2-ylmethoxy)pyridin-2-yl)ethynyl)phenyl)-1,5-bis(fluoromethyl)-2-thia-4-azabicyclo[4.1.0]hept-3-en-3-amine] | 784 | 2.02 | 0.735 | 14.1 | 
8 | N#CC[C@]12C[C@H]1[C@@](CF)(c1cc(C#Cc3ccc(C#N)cn3)ccc1F)N=C(N)S2 [Example 106, 6-((3-((1R,5S,6S)-3-amino-1-(cyanomethyl)-5-(fluoromethyl)-2-thia-4-azabicyclo[4.1.0]hept-3-en-5-yl)-4-fluorophenyl)ethynyl)nicotinonitrile] | 614 | 0.623 | 0.084 | 4.73 | 
9 | N#Cc1cnc(C#Cc2ccc(F)c([C@@]3(CF)N=C(N)S[C@@]4(/C=C/C(=O)N5CCOCC5)C[C@H]43)c2)c(F)c1 [Example 124, 6-((3-((1R,5S,6S)-3-amino-5-(fluoromethyl)-1-((E)-3-morpholino-3-oxoprop-1-en-1-yl)-2-thia-4-azabicyclo[4.1.0]hept-3-en-5-yl)-4-fluorophenyl)ethynyl)-5-fluoronicotinonitrile] | 335 | 0.153 | 0.049 | 0.037 | 
10 | CN(C)C(=O)[C@]12C[C@H]1[C@@](C)(c1cc(C#Cc3ccc(C#N)cc3)ccc1F)N=C(N)S2 [Example 129, (1S,5S,6S)-3-amino-5-(5-((4-cyanophenyl)ethynyl)-2-fluorophenyl)-N,N,5-trimethyl-2-thia-4-azabicyclo[4.1.0]hept-3-ene-1-carboxamide] | 289 |  | 0.007 | 0.251 | 0.058
11 | Cc1cc(C#N)cnc1C#Cc1cnc(F)c([C@@]2(C)N=C(N)S[C@@]3(C(=O)N4CCOCC4)CC32)c1 (stereo partly drawn) [Example 136, 6-((5-((1S,5S)-3-amino-5-methyl-1-(morpholine-4-carbonyl)-2-thia-4-azabicyclo[4.1.0]hept-3-en-5-yl)-6-fluoropyridin-3-yl)ethynyl)-5-methylnicotinonitrile] | > 400 |  | 0.037 | 0.974 | 0.181
12 | C[C@]1(c2cc(C#Cc3ccc(C#N)cn3)ccc2F)N=C(N)S[C@]2(CO)[C@H]1C2(F)F [Example 110, 6-((3-((1S,5S,6R)-3-amino-7,7-difluoro-1-(hydroxymethyl)-5-methyl-2-thia-4-azabicyclo[4.1.0]hept-3-en-5-yl)-4-fluorophenyl)ethynyl)nicotinonitrile] | 1160 | 0.355 | 0.047 | 2.08 | 
13 | N#Cc1cnc(C#Cc2ccc(F)c([C@@]3(CF)N=C(N)S[C@@]4(CF)C[C@H]43)c2)s1 [Example 109, 2-((3-((1S,5S,6S)-3-amino-1,5-bis(fluoromethyl)-2-thia-4-azabicyclo[4.1.0]hept-3-en-5-yl)-4-fluorophenyl)ethynyl)thiazole-5-carbonitrile] | 705 | 1.11 | 0.057 | 0.092 | 
14 | COC[C@]12CC1[C@@](C)(c1cc(C#Cc3ncc(Cl)cc3C)ccc1F)N=C(N)S2 (stereo partly drawn) [Example 134, (1S,5S)-5-(5-((5-chloro-3-methylpyridin-2-yl)ethynyl)-2-fluorophenyl)-1-(methoxymethyl)-5-methyl-2-thia-4-azabicyclo[4.1.0]hept-3-en-3-amine] |  |  |  |  | 0.951
15 | C#CCOc1ccc(C#Cc2ccc(F)c([C@@]3(C)N=C(N)S[C@@]4(C(=O)N(C)C)C[C@H]43)c2)nc1 [Example 130, (1S,5S,6S)-3-amino-5-(2-fluoro-5-((5-(2-propyn-1-yloxy)-2-pyridinyl)ethynyl)phenyl)-N,N,5-trimethyl-2-thia-4-azabicyclo[4.1.0]hept-3-ene-1-carboxamide] | 926 | 0.152 | 0.161 | 0.432 | 
16 | N#Cc1ccc(C#Cc2ccc(F)c([C@@]3(CF)N=C(N)S[C@@]4(CF)C[C@H]43)c2)nc1 [Example 101, 6-((3-((1S,5S,6S)-3-amino-1,5-bis(fluoromethyl)-2-thia-4-azabicyclo[4.1.0]hept-3-en-5-yl)-4-fluorophenyl)ethynyl)nicotinonitrile] | 2860 | 0.271 | 0.104 | 6.04 | 
17 | Cc1cc(C#Cc2ccc(F)c([C@@]3(CF)N=C(N)S[C@@]4(/C=C/C(=O)N5CCOCC5)C[C@H]43)c2)sn1 [Example 118, (E)-3-((1R,5S,6S)-3-amino-5-(2-fluoro-5-((3-methylisothiazol-5-yl)ethynyl)phenyl)-5-(fluoromethyl)-2-thia-4-azabicyclo[4.1.0]hept-3-en-1-yl)-1-morpholinoprop-2-en-1-one] | 26.2 | 0.023 | 0.006 | 0.017 | 
18 | NC1=N[C@](CF)(c2cc(C#Cc3ccc(Cl)cn3)ccc2F)[C@@H]2C[C@]2(CF)S1 [Example 102, (1S,5S,6S)-5-(5-((5-chloropyridin-2-yl)ethynyl)-2-fluorophenyl)-1,5-bis(fluoromethyl)-2-thia-4-azabicyclo[4.1.0]hept-3-en-3-amine] | 673 | 0.685 | 0.182 | 0.445 | 
19 | Cc1cc(C#N)cnc1C#Cc1ccc(F)c([C@@]2(CF)N=C(N)S[C@@]3(/C=C/C(=O)N4CCOCC4)C[C@H]32)c1 [Example 116, 6-((3-((1R,5S,6S)-3-amino-5-(fluoromethyl)-1-((E)-3-morpholino-3-oxoprop-1-en-1-yl)-2-thia-4-azabicyclo[4.1.0]hept-3-en-5-yl)-4-fluorophenyl)ethynyl)-5-methylnicotinonitrile] | 172 | 0.018 | 0.005 | 0.166 | 
